Measurements as given in patent publication US11129831B2, “Identification of agents displaying functional activation of dopamine D2 and D4 receptors” (Florida A&M University, priority 2017, dated 2021).

Columns and labels:
[1] = target: T1, D2R (Homo sapiens, UniProt P14416); assay: cell-based; format: cell-based; conditions: for Emax: normalized to vehicle (0%) and quinpirole (100%), read-out: β-Arrestin Emax; for recruitment of β-arrestin-2 to the D2R: result in words
[2] = target: T1, D2R; format: binding
[3] = system: apomorphine (APO)-induced climbing behavior; conditions: for mice exhibiting inhibition of climbing: at higher dosages of each agent
[4] = system: catalepsy; assay: Catalepsy bar test
[5] = Pharmacokinetics, plasma and brain levels by HPLC-PDA; conditions: for half-life: t1/2, elimination
[6] = system: righting reflex; assay: Righting test (sedation); format: in vivo; conditions: rats, following CLP and bar tests
[7] = system: other four DA receptor subtypes; assay: Binding to the other DA receptor subtypes; conditions: result in words

T1 sequence (P14416 whole entry): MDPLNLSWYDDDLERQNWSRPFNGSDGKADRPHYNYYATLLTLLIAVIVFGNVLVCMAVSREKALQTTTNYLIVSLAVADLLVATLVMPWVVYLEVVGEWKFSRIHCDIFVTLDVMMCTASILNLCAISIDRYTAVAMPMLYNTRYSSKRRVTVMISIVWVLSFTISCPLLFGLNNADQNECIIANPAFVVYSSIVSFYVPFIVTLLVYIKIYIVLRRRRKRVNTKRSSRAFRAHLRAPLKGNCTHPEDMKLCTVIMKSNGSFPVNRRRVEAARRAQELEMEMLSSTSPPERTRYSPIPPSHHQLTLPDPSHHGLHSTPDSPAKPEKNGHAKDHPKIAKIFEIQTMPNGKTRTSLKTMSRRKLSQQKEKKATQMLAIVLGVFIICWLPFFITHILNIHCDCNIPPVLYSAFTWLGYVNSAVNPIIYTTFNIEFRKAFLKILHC

Structure (SMILES): Fc1ccc(CCCCN2CCN(c3ccc(Cl)cc3)CC2)cc1 [SYA16267]
- Emax [1]: 5.1%
- recruitment of β-arrestin-2 to the D2R [1]: significant loss of the ability
- EC50 ([1]; β-arrestin-2 recruitment to D2R): 248 nM
- Ki [2]: 284 ± 21 nM

Structure (SMILES): O=C(CCCN1CCC(O)(c2ccc(Cl)cc2)CC1)c1ccc(F)cc1 [haloperidol]
- mice exhibiting inhibition of climbing [3]: ~100%
- antipsychotic activity in animal models of schizophrenia (FIG. 10A) ([3]; result in words): dose-dependent antipsychotic activity
- catalepsy at 6×ED50 (FIG. 10B) ([4]; 6×ED50 values, result in words): significant catalepsy

Structure (SMILES): Fc1ccc(CCCCN2CCN(c3ncccn3)CC2)cc1 [SYA16268]
- Emax [1]: 71.9%

Structure (SMILES): Fc1ccc(CCCCN2CCN(c3ccccn3)CC2)cc1 [SYA16263]
- recruitment of β-arrestin-2 to the D2R [1]: promotes D2-mediated β-arrestin-2 translocation
- AUC0-t ([5]; brain, rats, ip 50 mg/kg): 86 μg · h/(mL or g)
- tmax ([5]; brain, rats, ip 50 mg/kg): 10 min
- AUC0-t ([5]; plasma, rats, ip 50 mg/kg): 5.4 μg · h/(mL or g)
- Cplasma ([5]; plasma, rats, ip 50 mg/kg, used for BB): 5.23
- Cmax ([5]; rat, in vivo, ip, 50 mg/kg): 63500 ng/g
- tmax ([5]; rat, in vivo, ip, 50 mg/kg): 10.2 min
- Kp at 10 min ([5]; rat, in vivo, ip, 50 mg/kg, BB=Cbrain/Cplasma, rats, ip 50 mg/kg, at ~equilibrium point): 12.1
- half-life ([5]; rat, in vivo, ip, 50 mg/kg, brain, rats, ip 50 mg/kg): 174 to 186 min
- half-life ([5]; rat, in vivo, ip, 50 mg/kg, plasma, rats, ip 50 mg/kg): 44.4 to 58.8 min
- Log BB ([5]; rats, ip 50 mg/kg): 1.08
- brain concentration at 24-hour point ([5]; rats, ip 50.0 mg/kg, 24 h): near or below the detection limit
- plasma concentration at 24-hour point ([5]; rats, ip 50.0 mg/kg, 24 h): below the detection limit
- mice exhibiting inhibition of climbing [3]: ~100%
- righting after catalepsy testing [6]: all rats were observed to right themselves
- mean time on bar ([4]; rats, up to 239 μmole/kg (75 mg/kg), 19×ED50apom, no catalepsy): < 20 s

Structure (SMILES): Fc1ccc(OCCCN2CCN(c3ccccn3)CC2)cc1 [SYA16264]
- Emax [1]: 75.7%
- righting after catalepsy testing [6]: All rats righted themselves
- mean time on bar ([4]; male, Sprague-Dawley, rat, in vivo, 60 min): < 20 s

Structure (SMILES): Br.Br.Br.c1cnc(N2CCN(CCCc3nc4ccccc4s3)CC2)nc1 [Compound 28, 2-(3-(4-(Pyrimidin-2-yl)piperazin-1-yl)propyl)benzo[d]thiazole trihydrobromide]
- binding affinity to the other four DA receptor subtypes [7]: little or no binding affinity
